“Also recorded” adds a separate entry of the source.
How the values were obtained:
LNCaP cells [1] = assay: Dependence of cytotoxicity on NO signaling, LNCaP cells (MTT); format: cell-based; conditions: for effect of C-PTIO on cytotoxicity of Peptide A-8R: Fig. S1D
Description: (§1) For proliferation, cells were grown in medium containing 2% FBS extracted with dextran-coated charcoal (DCC). 48 hours later, ethanol or 1 nM R1881 was added to the cells followed by peptide treatment. The MTT assay (Sigma) was used as before to determine cell number. For apoptosis, 5000 cells were seeded in 96-well plates and treated with Vehicle (DMSO), Peptide A-8R (25 µM), Etoposide (50 µM) (Sigma) at different time points. The Caspase (3/7) activity was measured using Apo-ONE Homogeneous Caspase-3/7 assay kit (Promega). PARP cleavage was also used to measure apoptosis, and is described below.
(§2) (A) Whole-cell extracts from LNCaP cells treated with Vehicle, Peptide A-8R, or C-8R were subjected to IP using an anti-sGCα1 or anti-sGCβ1 antibody and then probed by Western blotting for sGCα1 (Upper) or sGCβ1 (Lower). Input represents amount of sGCα1 or sGCβ1 found in extracts. (B) LNCaP cells grown in the absence or presence of 1 nM R1881 were treated with Vehicle, 20 µM Peptide A-8R, 20 µM C-8R, or 8-Br-cGMP and monitored for cGMP levels using the cGMP E1A kit (Enzo Life Sciences). (C) LNCaP cells grown in the absence or presence of 8-Br-cGMP were treated with Vehicle, Peptide A-8R, or ODQ and monitored for cell density using the MTT assay. (D) LNCaP cells were treated with Vehicle or different concentrations of Peptide A-8R and C-PTIO and monitored for cell density. Bar graphs represent averages of three independent experiments plus standard deviations. Asterisks indicate statistical significance (P<0.04). (TIF) Click here for additional data file.

[2] = test system: Caspase 3/7 activity in LNCaP cells; assay: Caspase 3/7 assay, LNCaP cells; format: cell-based; conditions: Peptide 10 µM, Etoposide 20 µM, 24 hrs, Fig. 5A
Description: as §1
Figure 5 Peptide A-8R induces apoptosis of prostate cancer cells. (A) LNCaP, (B) PC-3, or (C) Cos cells were treated with Vehicle, Peptide A-8R (10 µM), or Etoposide (20 µM) for 0–24 hrs and subjected to a Caspase assay to measure apoptosis. Bar graphs represent averages of three independent experiments plus standard deviations. All activities are relative to the first condition, and this activity was set to 1. Asterisks indicate statistical significance (P<0.005). (D) LNCaP cells were treated with Vehicle, Peptide C-8R, Peptide A-8R, or Etoposide (each drug at 50 µM) for 8 hrs and monitored for apoptosis by measuring PARP cleavage using Western blotting. Note that β-actin was used to control for protein loading.
Supplementary file pone.0064189.s005.tif: Figure S5 ROS generation is not induced by Peptide A-8R in PC-3 cells and Peptide C-8R in LNCaP cells. (A) PC-3 cells were treated with Vehicle or different concentrations of Peptide A-8R or Peptide C-8R, as shown, or (B) LNCaP cells were treated with Vehicle or different concentrations of Peptide A-8R or Peptide C-8R, or H2O2 and monitored for ROS generation after 0–30 (A) or 30 (B) min. (C) LNCaP cells were treated with Vehicle, Peptide C-8R (10 µM), Peptide A-8R (10 µM), or Etoposide (100 µM) for 0–8 hrs and subjected to a Caspase assay to measure apoptosis. Bar graphs represent averages of three independent experiments plus standard deviations. (C) All activities are relative to the first condition, and this activity was set to either 1. Asterisks indicate statistical significance (P<0.006) of all values compared to Vehicle (B) or to 0 hour (C). (TIF) Click here for additional data file.

LNCaP cells [3] = assay: Proliferation/cytotoxicity, LNCaP cells (MTT); format: cell-based; conditions: PI3K-AKT inhibitor; MTT; Fig. S3A; averages of three independent experiments
Description: LNCaP, C81, PC-3 and Cos cells were grown as previously described. CWR-22Rv1 cells were cultured in RMPI-1640 medium with 10% FBS and 50 µg/ml Gentamicin (Gibco). Control siRNA, sGCα1 siRNA and AKT siRNA (Dharmacon) at 50 nM final concentration was transfected into cells using Lipofectamine siMAX (Invitrogen).
as §1
(A) Four peptides were designed targeting sGCα1, with each peptide containing eight arginines at the C-terminus for membrane translocation. (B) LNCaP cells were grown in 10% serum under different concentrations of the four peptides, as shown. Cell number was measured after 0–4 days of incubation. Data points represent averages of three independent experiments plus standard deviations. Asterisks indicate statistical significance (P<0.0002) of Peptide A activity, relative to Vehicle.
Figure 2 Peptide A-8R interacts with sGCα1 in prostate cancer cells. (A) LNCaP cells were treated with 25 µM Biotin-labeled Peptide A-8R for 2 hrs and subjected to immunocytochemistry using anti-sGCα1 or anti-Biotin antibody to measure subcellular co-localization of endogenous sGCα1 and Peptide A-8R. DAPI was used to stain nuclei. (B) LNCaP cytosolic extracts were incubated with Peptide A-8R-Biotin and subjected to purification using streptavidin-agarose. This pull-down experiment was repeated with competing excess amount of unlabeled Peptide C-8R or Peptide A-8R. […] Co-purified Peptide A-8R-FITC was quantified by measuring fluorescence signal emission. […] Cell number was measured after 0–48 hrs of incubation. […]

DNA damage in C81 cells = assay: Comet assay (DNA damage); format: cell-based; conditions: 5 mM NAC, 2-hour pretreatment; Fig. 4C
Description: C81 cells were treated with Peptide A-8R for 1 hour, following a 2-hour pretreatment with 5 mM NAC or Vehicle, and trypsinized, and mixed with Comet LM-Agarose (CometAssay, […]) and transferred to slides. Electrophoresis and Sybr-Green staining was carried out according to manufacturer’s protocol.
(§3) Figure 4 Peptide A-8R kills prostate cancer cells by mediating ROS generation. (A) C81 cells were treated with Vehicle or different µMolar concentrations of Peptide A-8R and without or with 0–5 mM NAC and monitored for ROS generation after 0–30 min as measured by fluorescence intensity (FI). Bar graphs represent averages of three independent experiments plus standard deviations. Note that asterisks on bar graphs found with NAC are compared to equivalent data without NAC. (B) C81 cells were treated with Vehicle or different concentrations of Peptide A-8R, as shown, and 0–5 mM NAC, as shown, and monitored for cell number after 0–6 days of incubation as measured by MTT assay. Data points represent averages of three independent experiments plus standard deviations. Asterisks indicate statistical significance (P<0.04). (C) C81 cells were treated with Vehicle or different concentrations of Peptide A-8R, as shown, and with or without 5 mM NAC, as shown, and monitored DNA damage after 1 hr incubation as measured by Comet assay.

C81 cells [4] = assay: DAPI DNA staining, C81 cells; format: cell-based; conditions: 5 mM NAC, 2 hrs, Fig. S6
Description: C81 cells were first treated with or without 5 mM NAC for 2 hrs and then Vehicle or different concentrations of Peptide A-8R, as shown, for 1 hr and stained with DAPI. Phase contrast images are shown. (TIF) Click here for additional data file.

C81 cells [5] = assay: NAC rescue of proliferation of Peptide A-8R-treated cells (MTT); format: cell-based; conditions: for NAC rescue of proliferation: C81, NAC 1 or 5 mM, 2 h pretreatment, 0–6 days
Description: as §1
Intracellular ROS levels were evaluated using the fluorescent probe 5-(and-6)-chloromethyl-2′,7′-dichlorodihydrofluorescein diacetate (CM-H2DCFDA) (Invitrogen). After treatments with Peptide A-8R, C81 cells were loaded with 20 µM CM-H2DCFDA and incubated at 37°C for 30 min in the dark. Cells were then washed with PBS and fluorescence was measured at the excitation and emission wavelengths of 490 and 535 nm, respectively, using a multi-well fluorescence plate reader. For NAC (N-acetyl cysteine) (Sigma) rescue experiment, cells were pretreated with 1 or 5 mM NAC for 2 hours before adding Peptide A-8R.
as §3

sGC = assay: cGMP levels in LNCaP cells (ELISA); format: cell-based; conditions: 1 nM R1881 absent or present, 20 µM peptide, cGMP EIA kit, Fig. S1B
Description: as §2

tumor cell = conditions: ref [16], [17]; cited from earlier work
Excerpt: In view of the rapid cytotoxicity induced by Peptide A (data not shown), we examined the possibility that ROS was involved.

Which “effect of C-PTIO on cytotoxicity of Peptide A-8R” value (LNCaP cells [1]; Peptide A-8R at 50 µM) does the source give for `CC1(C)N([O])C(c2ccc(C(=O)O)cc2)=[N+]([O-])C1(C)C` [C-PTIO] here?
Its value is “interestingly not 50 µM”.

What about the “effect of C-PTIO on cytotoxicity of Peptide A-8R” value (LNCaP cells [1]; Peptide A-8R at 10 and 25 µM, P<0.04) of the same compound?
Its value is “enhanced rather than relieved the cytotoxicity of Peptide A-8R at 10 and 25 µM”.

With `COc1cc([C@@H]2c3cc4c(cc3[C@@H](O[C@@H]3O[C@@H]5CO[C@@H](C)O[C@H]5[C@H](O)[C@H]3O)[C@H]3COC(=O)[C@H]23)OCO4)cc(OC)c1O` [Etoposide, reference compound] as the compound, how does the “Caspase 3/7 activity” value [2] read?
The value was “induced similar levels of Caspase activity as did Peptide A-8R, but only after 24 hrs of treatment”.

For `O=c1cc(N2CCOCC2)oc2c(-c3ccccc3)cccc12` [LY294002, reference compound], which LNCaP cell proliferation (LNCaP cells [3]) is on record?
The LNCaP cell proliferation was “dramatically repressed LNCaP cell proliferation”.

What does the source list for `CC(=O)N[C@@H](CS)C(=O)O` [NAC, N-acetyl cysteine]?
inhibition of Peptide A-8R-induced DNA damage (DNA damage in C81 cells): completely blocked; effect of NAC on cells treated with 50 µM Peptide A-8R (DAPI) (C81 cells [4]): had no effect; NAC rescue of proliferation (C81 cells [5]; 10 µM Peptide A-8R, Fig. 4B (P<0.04)): able to completely rescue the proliferation; NAC rescue of proliferation (C81 cells [5]; 25 µM Peptide A-8R, Fig. 4B (P<0.04)): nearly completely; NAC rescue of proliferation (C81 cells [5]; 50 µM Peptide A-8R, Fig. 4B): failed to significantly rescue the growth; also recorded: only marginally rescued; NAC rescue (discussion) (C81 cells [5]; 10 and 25 µM Peptide A-8R): strong rescue

With `Nc1nc2c(nc(Br)n2[C@@H]2O[C@@H]3COP(=O)(O)O[C@H]3[C@H]2O)c(=O)[nH]1` [Peptide 8-Br-cGMP] as the compound, how does the “effect of added agent on Vehicle- or Peptide A-8R-treated cells (cell density)” value (LNCaP cells [1]; MTT, Fig. S1C) read?
The value was “had no effect on Vehicle- or Peptide A-8R-treated cells”.

What about the “rescue of ODQ-treated cells (cell density)” value (LNCaP cells [1]; MTT, ODQ-treated, Fig. S1C) of the same compound?
Its value is “able to partially rescue cells treated with the sGC enzyme inhibitor ODQ”.

With `C[C@]1(O)CC[C@H]2[C@@H]3CCC4=CC(=O)CCC4=C3C=C[C@@]21C` [Peptide R1881, reference compound] as the compound, how does the cGMP levels (sGC) read?
The cGMP levels was “markedly elevated cGMP levels”.

For `N.N.[Cl][Pt][Cl]` [cisplatin], which “tumor cell death by elevating ROS” value (tumor cell) is on record?
The value was “induce tumor cell death by elevating levels of reactive oxygen species”.

For `COc1cccc2c1C(=O)c1c(O)c3c(c(O)c1C2=O)C[C@@](O)(C(=O)CO)C[C@@H]3O[C@H]1C[C@H](N)[C@H](O)[C@H](C)O1` [doxorubicin], which “tumor cell death by elevating ROS” value (tumor cell) is on record?
The value was “induce tumor cell death by elevating levels of reactive oxygen species”.
